In ChEMBL document CHEMBL1201862, “PubChem BioAssay data set” (2004):
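The compound was tested at five concentrations on cells cultured in 96-well plates, with a 48-hour exposure period. GI50 is the concentration that inhibits growth by half.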 The source made the active and inactive calls. Rule as the data show it: active = GI50 up to about 1.1 µM and inactive = higher.

Legend:
Test in all cases: DTP human tumour cell line panel, 48 h
[1] = tested on: 786-0
[2] = tested on: A549
[3] = tested on: CCRF-CEM
[4] = tested on: HOP-62
[5] = tested on: IGROV-1
[6] = tested on: MDA-MB-231
[7] = tested on: MDA-MB-435
[8] = tested on: MDA-N
[9] = tested on: MOLT-4
[10] = tested on: Malme-3M
[11] = tested on: NCI-H226
[12] = tested on: NCI-H23
[13] = tested on: NCI/ADR-RES
[14] = tested on: OVCAR-3
[15] = tested on: RXF 393
[16] = tested on: SNB-75
[17] = tested on: NCI-H460
[18] = tested on: SF-268
[19] = tested on: TK-10
[20] = tested on: T47D

Compound | GI50 [1] | GI50 [2] | GI50 [3] | GI50 [4] | GI50 [5] | GI50 [6] | GI50 [7] | GI50 [8] | GI50 [9] | GI50 [10] | GI50 [11] | GI50 [12] | GI50 [13] | GI50 [14] | GI50 [15] | GI50 [16] | GI50 [17] | GI50 [18] | GI50 [19] | GI50 [20]
CSc1nc2c(c(=O)[nH]1)N=C(c1ccc(Cl)cc1)CC(c1ccccc1)N2 (stereo not drawn) | 15.7 µM (inactive) | 13.6 µM (inactive) | 17.1 µM (inactive) | 17.9 µM (inactive) | 15.5 µM (inactive) | 16.6 µM (inactive) | 17.9 µM (inactive) | 17.6 µM (inactive) | 17.7 µM (inactive) | 19.5 µM (inactive) | 24.8 µM (inactive) | 14.7 µM (inactive) | 14.5 µM (inactive) | 15.2 µM (inactive) | 17.2 µM (inactive) | 12.1 µM (inactive) | – | – | – | –
CCN1CC2=C(N=c3s/c(=C\c4ccc(Cl)cc4)c(=O)n3C2c2ccc(Cl)cc2)/C(=C/c2ccc(Cl)cc2)C1 (stereo not drawn) | 10.4 µM (inactive) | > 100 µM (inactive) | 73.3 µM (inactive) | 14.7 µM (inactive) | 67.3 µM (inactive) | 25.6 µM (inactive) | > 100 µM (inactive) | > 100 µM (inactive) | 64.6 µM (inactive) | > 100 µM (inactive) | 37 µM (inactive) | 63.1 µM (inactive) | > 100 µM (inactive) | > 100 µM (inactive) | 2.47 µM (inactive) | 2.37 µM (inactive) | > 100 µM (inactive) | 24.9 µM (inactive) | 18.9 µM (inactive) | –
C/C(Nc1ccc(F)cc1)=C1/CCOC1=O | > 100 µM (inactive) | 90.4 µM (inactive) | > 100 µM (inactive) | > 100 µM (inactive) | > 100 µM (inactive) | > 100 µM (inactive) | 2.92 µM (inactive) | – | 24.5 µM (inactive) | > 100 µM (inactive) | 91.6 µM (inactive) | > 100 µM (inactive) | > 100 µM (inactive) | > 100 µM (inactive) | 4.73 µM (inactive) | > 100 µM (inactive) | > 100 µM (inactive) | > 100 µM (inactive) | > 100 µM (inactive) | 63.2 µM (inactive)
CC[C@]12C=CCN3CCC4(c5cc(/N=N/c6ccccc6)c(OC)cc5N(C)[C@H]4[C@@](O)(C(=O)OC)[C@@H]1OC(C)=O)[C@@H]32 (stereo partly drawn) | 16.9 µM (inactive) | 17.5 µM (inactive) | – | 17.5 µM (inactive) | 17.3 µM (inactive) | 16.2 µM (inactive) | 18.8 µM (inactive) | 18.4 µM (inactive) | 13.6 µM (inactive) | 17.8 µM (inactive) | 24 µM (inactive) | 15.3 µM (inactive) | 20.4 µM (inactive) | 12.8 µM (inactive) | 15.2 µM (inactive) | – | 16 µM (inactive) | 18.2 µM (inactive) | 17.6 µM (inactive) | –
O=c1ccc(=O)c2c1c1[nH]c3ccccc3c1c1c(=O)c3ccccc3c(=O)c21 | > 10 µM (inactive) | > 10 µM (inactive) | 3.19 µM (inactive) | > 10 µM (inactive) | > 10 µM (inactive) | 5.36 µM (inactive) | > 10 µM (inactive) | – | 3.24 µM (inactive) | > 10 µM (inactive) | > 10 µM (inactive) | > 10 µM (inactive) | > 10 µM (inactive) | > 10 µM (inactive) | > 10 µM (inactive) | > 10 µM (inactive) | > 10 µM (inactive) | > 10 µM (inactive) | 4.92 µM (inactive) | > 10 µM (inactive)
COc1cc2c(cc1C)NC(=O)/C2=C\c1ccncc1 | 5.35 µM (inactive) | 15.3 µM (inactive) | 2.75 µM (inactive) | 6.97 µM (inactive) | 2.43 µM (inactive) | – | 4.14 µM (inactive) | – | – | 15.5 µM (inactive) | – | 3.43 µM (inactive) | 3.58 µM (inactive) | 3.9 µM (inactive) | 3.76 µM (inactive) | 13.4 µM (inactive) | 17.7 µM (inactive) | 3.83 µM (inactive) | 5.86 µM (inactive) | 3.81 µM (inactive)
CCCCCCCCCCCCCCCCCCNc1ccn(C2OC(CO)C(OP(=O)(O)OCC(O)COP(=O)(O)OCC3OC(n4cc(F)c(NCCCCCCCCCCCCCCCCCC)nc4=O)CC3O)C2O)c(=O)n1 (stereo not drawn) | > 50 µM (inactive) | > 50 µM (inactive) | – | > 50 µM (inactive) | > 50 µM (inactive) | > 50 µM (inactive) | > 50 µM (inactive) | > 50 µM (inactive) | – | > 50 µM (inactive) | > 50 µM (inactive) | > 50 µM (inactive) | > 50 µM (inactive) | > 50 µM (inactive) | – | > 50 µM (inactive) | > 50 µM (inactive) | > 50 µM (inactive) | > 50 µM (inactive) | > 50 µM (inactive)
C/C=C/[C@@]1(OC(=O)c2ccccc2)C[C@@H]2CCCC[C@@H]21 | 17.7 µM (inactive) | 18.5 µM (inactive) | 18.3 µM (inactive) | 15.5 µM (inactive) | 17 µM (inactive) | 20.6 µM (inactive) | – | 17.4 µM (inactive) | 17.9 µM (inactive) | 17.5 µM (inactive) | 16.5 µM (inactive) | 16.5 µM (inactive) | 20.5 µM (inactive) | – | – | 14.2 µM (inactive) | 18.4 µM (inactive) | 17.1 µM (inactive) | 15 µM (inactive) | 18.6 µM (inactive)
N/N=C1\CCCc2c1no[n+]2[O-] | > 100 µM (inactive) | > 100 µM (inactive) | > 100 µM (inactive) | > 100 µM (inactive) | > 100 µM (inactive) | > 100 µM (inactive) | > 100 µM (inactive) | > 100 µM (inactive) | > 100 µM (inactive) | > 100 µM (inactive) | > 100 µM (inactive) | > 100 µM (inactive) | > 100 µM (inactive) | > 100 µM (inactive) | > 100 µM (inactive) | > 100 µM (inactive) | > 100 µM (inactive) | > 100 µM (inactive) | > 100 µM (inactive) | –
COc1c(-c2ccc(F)cc2)oc2cc(O)cc(O)c2c1=O | 32.8 µM (inactive) | 31 µM (inactive) | 29.4 µM (inactive) | 18.5 µM (inactive) | 21.4 µM (inactive) | 20 µM (inactive) | 32.1 µM (inactive) | 26.2 µM (inactive) | 24.2 µM (inactive) | 26.6 µM (inactive) | – | 29.6 µM (inactive) | 25.9 µM (inactive) | 34.1 µM (inactive) | – | 19.2 µM (inactive) | 21.7 µM (inactive) | 40 µM (inactive) | – | 18.8 µM (inactive)
Cn1cccc1-c1ccc(-c2ccc(CO)[se]2)[se]1 | 14.2 µM (inactive) | 15.2 µM (inactive) | 11.5 µM (inactive) | 21.6 µM (inactive) | 0.582 µM (active) | 29.8 µM (inactive) | 4.91 µM (inactive) | 8.53 µM (inactive) | 8.79 µM (inactive) | 66.1 µM (inactive) | 0.307 µM (active) | 25.9 µM (inactive) | 22.8 µM (inactive) | 4.02 µM (inactive) | 5.66 µM (inactive) | 6.08 µM (inactive) | 10.9 µM (inactive) | 44.7 µM (inactive) | 28.1 µM (inactive) | –
N#CC(CCN1CCC(Nc2ccccc2)(c2nnnn2C2CCCCC2)CC1)(c1ccccc1)c1ccccc1 | > 100 µM (inactive) | > 100 µM (inactive) | > 100 µM (inactive) | > 100 µM (inactive) | > 100 µM (inactive) | > 100 µM (inactive) | > 100 µM (inactive) | > 100 µM (inactive) | > 100 µM (inactive) | > 100 µM (inactive) | > 100 µM (inactive) | > 100 µM (inactive) | > 100 µM (inactive) | > 100 µM (inactive) | > 100 µM (inactive) | > 100 µM (inactive) | > 100 µM (inactive) | > 100 µM (inactive) | > 100 µM (inactive) | –
Cc1ccccc1C(O)(c1nccn1C)c1nccn1C | > 100 µM (inactive) | > 100 µM (inactive) | > 100 µM (inactive) | > 100 µM (inactive) | > 100 µM (inactive) | – | > 100 µM (inactive) | > 100 µM (inactive) | > 100 µM (inactive) | > 100 µM (inactive) | > 100 µM (inactive) | – | > 100 µM (inactive) | > 100 µM (inactive) | > 100 µM (inactive) | > 100 µM (inactive) | > 100 µM (inactive) | > 100 µM (inactive) | > 100 µM (inactive) | > 100 µM (inactive)
CCN(CC)CCC(=O)/C=C/c1ccccc1 | 2.67 µM (inactive) | 19 µM (inactive) | 3.57 µM (inactive) | 20.3 µM (inactive) | 17.5 µM (inactive) | 15.5 µM (inactive) | 11 µM (inactive) | 13.3 µM (inactive) | 6.3 µM (inactive) | 15.9 µM (inactive) | 19.4 µM (inactive) | 18.2 µM (inactive) | 17.5 µM (inactive) | 3.54 µM (inactive) | 9.25 µM (inactive) | 13.2 µM (inactive) | 12.1 µM (inactive) | 10.3 µM (inactive) | 17.7 µM (inactive) | –
Nc1nc(N)c2cc(Sc3cccc(C(F)(F)F)c3)ccc2n1 [WR-159412] | 0.624 µM (active) | 0.367 µM (active) | 0.53 µM (active) | 2.12 µM (inactive) | 0.708 µM (active) | 0.364 µM (active) | 0.662 µM (active) | 0.371 µM (active) | 0.271 µM (active) | 1.02 µM (active) | – | 2.99 µM (inactive) | 0.955 µM (active) | 3.87 µM (inactive) | – | 3.17 µM (inactive) | 0.466 µM (active) | 2.22 µM (inactive) | 10.1 µM (inactive) | –
